# Data reported in patent US20110059909A1, “METHODS FOR TREATING INFLAMMATORY DISORDERS” (priority 2004, published 2011).
# Legend:
# [1] = system: rat primary astrocytes; assay: Assay for NO production (nitrite, Griess reagent) in LPS/IFNγ-stimulated primary astrocytes; format: cell-based; conditions: for LPS/IFNγ-induced NO production: primary astrocytes, LPS/IFNγ (1 μg/ml; 10 U/ml), NO at 24 h; for Reversal of PDMP-mediated inhibition of LPS/IFNγ-induced NO production: PDMP 50 μM plus exogenous glycosphingolipid 5 and 10 μM, 0.5 h before LPS/IFNγ
# Protocol: (§1) Primary astrocyte-enriched cultures were prepared from the whole cortex of one day old Sprague-Dawley rats as described earlier (Pahan et al., 1998b). Briefly, the cortex was rapidly dissected in ice-cold calcium/magnesium free Hanks Balanced Salt Solution (HBSS) (Gibco, Grand Island, N.Y.) at pH 7.4 as described previously (Won et al., 2001). The tissue was then minced, incubated in HBSS containing trypsin (2 mg/ml) for 20 min and washed twice in plating medium containing 10% FBS and 10 μg/ml gentamicin, and then disrupted by triturating through a Pasteur pipette following which cells were seeded in 75-cm^2 culture flasks (Falcon, Franklin, N.J.). After incubation at 37° C. in 5% CO2 for 1 day, the medium was completely changed to the culture medium (DMEM containing 5% FBS and 10 μg/ml gentamicin). The cultures received half exchanges with fresh medium twice a week. After 14-15 days the cells were shaken for at least 24 h on an orbital shaker to remove the microglia and then seeded on multi-well tissue culture dishes. The cells were incubated with serum-free DMEM for 24 h prior to the incubation with drugs.
# Cells were cultured in 12-well plastic tissue culture plates. Following appropriate treatment, production of NO was determined by an assay of the culture supernatant for nitrite (Green et al., 1982). Briefly, 100 μl of culture supernatant was allowed to react with 100 μl of Griess reagent. The optical density of the assay samples was measured spectrophotometrically at 570 nm. Nitrite concentrations were calculated from a standard curve derived from the reaction of NaNO2 in fresh media.
# [2] = system: iNOS; assay: iNOS mRNA (RT-PCR) and protein (immunoblot) in LPS/IFNγ-stimulated primary astrocytes; format: cell-based, rat; conditions: primary astrocytes; LPS/IFNγ (1 μg/ml; 10 U/ml); mRNA 6 h, protein 24 h
# Protocol: as §1
# (§2) For iNOS protein, the cells were washed with cold Tris buffered saline (TBS; 20 mM Trizma base, and 137 mM NaCl, pH 7.5), lysed in 1×SDS sample loading buffer (62.5 mM Trizma base, 2% w/v SDS, 10% glycerol), following sonication and centrifugation at 15,000×g for 5 min, the supernatant was used for the iNOS western immunoblot assay. The protein concentration of samples was determined with the detergent compatible protein assay reagent (Bio-Rad Laboratories, CA) using bovine serum albumin (BSA) as the standard. Sample was boiled for 3 min with 0.1 volumes of 10% β-mercaptoethanol and 0.5% bromophenol blue mix. Fifty μg of total cellular protein was resolved by electrophoresis on 8 or 12% polyacrylamide gels, electro-transferred to polyvinylidene difluoride (PVDF) filter and blocked with Tween 20 containing Tris-buffered saline (TBST; 10 mM Trizma base-pH 7.4, 1% Tween 20, and 150 mM NaCl) with 5% skim milk. After incubation with antiserum against iNOS (BD PharMingen, CA), rat GalT-2 (Abjent Inc., CA), H-Ras (Upstate Biotechnology, CA), GFAP (Santa Cruz Biotech, CA), or phospho-specific ERK1/2 (Cell signaling Tech Inc., MA), or pIκ-B (Signal Transduction), in PVDF buffer for 2 h at room temperature, the filters were washed 3 times with TBST buffer and then incubated with horseradish peroxidase conjugated anti-rabbit or mouse IgG for 1 h. The membranes were detected by autoradiography using ECL-plus (Amersham Pharmacia Biotech) after washing with TBST buffer.
# 5 μg total RNA was treated with 2 U DNAse I (bovine pancreas, Sigma) for 15 min at room temperature in 18 μl volume containing 1×PCR buffer and 2 mM MgCl2. It was then inactivated by incubation with 2 μl of 25 mM EDTA at 65° C. for 15 min. 2 μl of random primers were added and annealed to the RNA according to the manufacturer's protocol. cDNA was synthesized in a 50 μl reaction containing 5 μg of total RNA and 50-100 U reverse transcriptase by incubating the tubes at 42° C. for 60 min. PCR amplification was conducted in 25 μl of reaction mixture with 1.0 μl of cDNA, […] of each primer and under the manufacturer's Taq polymerase conditions (Takara, Takara Shuzo Co. Ltd, Japan). The sequence of primers used for PCR amplification are as follows; iNOS, (Forward-5′ […] 3′, SEQ ID NO:3; Reverse-5′ […] 3′, SEQ ID NO:4), GalT-2 (Forward-5′ tggtacaagctagaggc 3′, SEQ ID NO:5; Reverse-5′ gcatggcacattgaa C-3′, SEQ ID NO:6), GAPDH (Forward-5′ […] 3′, SEQ ID NO:7; Reverse-5′ cttcacgaagttgtcattgagggca3′, SEQ ID NO:8), TNFα (Forward-5′ […] g-3′, SEQ ID NO:9; Reverse-5′[…]-3′, SEQ ID NO:10) and IL-1β (Forward-5′[…]-3′, SEQ ID NO:11; reverse-5′[…]-3′, SEQ ID NO:12).
# [3] = system: small GTPase Ras; assay: Quantification of Ras activation (GST-Raf-1 RBD pull-down) in primary astrocytes; format: cell-based, rat; conditions: for LacCer-mediated Ras activation: NAC 10 mM or PDTC 100 μM 1 h, LacCer 5 min
# Protocol: After stimulation, primary astrocytes in 6-well plates were washed with ice cold PBS and lysed in membrane lysis buffer (MLB; 0.5 ml of 25 mM HEPES, pH 7.5, 150 mM NaCl, 1% Igepal CA-630, 0.25% sodium deoxycholate, 10% glycerol, 10 mM MgCl2, 1 mM EDTA, 25 mM NaF, 1 mM of sodium orthovanadate, and EDTA free Complete™ protease inhibitor cocktail). After centrifugation (5,000×g) at 4° C. for 5 min, supernatant was used for Ras activation assay. One hundred μg of supernatant was used for binding with agarose conjugated Ras-binding domain (RBD) of Raf-1 which was expressed in BL21 (Invitrogen), Escherichia coli strain, transformed by pGEX-2T-GST-RBD in the presence of 0.1 mM of IPTG as described previously (Herrmann et al., 1995). The binding reaction was performed at 4° C. for 30 min in MLB. Following washing with MLB three times, Ras-RBD complex were denatured by adding of 2×SDS sample buffer. Ras protein was identified by western blot analysis with Ras antibodies from Upstate Biotechnology.
# [4] = system: ERK1/2; assay: ERK1/2 activation (phospho-ERK1/2 immunoblot) in primary astrocytes; format: cell-based, rat; conditions: pretreated 0.5 h, TNFα 20 min
# Protocol: as §2
# [5] = system: rat primary astrocytes; assay: BrdU incorporation assay, proliferation of primary astrocytes; format: cell-based; conditions: for Proliferation of astrocytes induced by the substance itself: increasing doses (1, 5 and 10 μM for GSL), 18 h
# Protocol: as §1
# Proliferation of primary astrocytes was assayed by using the Cell proliferation ELISA, BrdU colorimetric assay kit (Roche, Germany) according to manufacturer's protocol. Briefly, cells were seeded in 96 well plates in quadruplicate and following overnight serum starvation were stimulated with mitogenic stimulants. 2 h before termination of proliferation assay, BrdU (10 μM) was added to each well following which cells were fixed and levels of incorporated BrdU were assayed by using a conjugated anti-BrdU enzyme. Colorimetric analysis was done by measuring absorbance at 370 nm using a spectramax MAX 190 (Molecular devices) multi-well plate reading spectrophotometer.
# [6] = system: GFAP; assay: GFAP mRNA (real time PCR) and protein (immunoblot) in TNFα-stimulated primary astrocytes; format: cell-based, rat
# Protocol: as §2
# [7] = cited from earlier work
# [8] = system: PI-3K; assay: PI-3 kinase activity assay; format: cell-based, rat; conditions: exogenous lipid
# Protocol: Cells after stimulation in serum-free DMEM/F-12 were lysed with ice-cold lysis buffer containing 1% (vol/vol) NP-40,100 mM NaCl, 20 mM Tris (pH 7.4), 10 mM iodoacetamide, 10 mM NaF, 1 mM sodium orthovanadate, 1 mM […], 1 μg/ml leupeptin, 1 μg/ml antipain, 1 mg/ml aprotinin, and 1 μg/ml pepstatin A. Lysates were incubated at 4° C. for 15 min, followed by centrifugation at 13,000 g for 15 min. The supernatant was pre-cleared with protein G-Sepharose beads (Pharmacia Biotech) for 1 h at 4° C. followed by the addition of 1 μg/ml p85α monoclonal antibody. After 2 h of incubation at 4° C., protein G-Sepharose beads were added and the resulting mixture was further incubated for 1 h at 4° C. The immunoprecipitates were washed twice with lysis buffer, once with phosphate-buffered saline (PBS), once with 0.5 M LiCl and 100 mM Tris (pH 7.6), once in water, and once in kinase buffer (5 mM MgCl2, 0.25 mM EDTA, 20 mM HEPES, pH 7.4). PI-3kinase activity was determined as already described (Ward et al., 1992; Pahan et al., 1999) using a lipid mixture of 100 μl of 0.1 mg/ml PI and 0.1 mg/ml phosphatidylserine dispersed by sonication in 20 mM HEPES (pH 7.0) and 1 mM EDTA. The reaction was initiated by the addition of 20 of [γ-32P] […]
compound,measurement,setting,value
"S=C(S)N1CCCC1 [PDTC, pyrrolidine dithiocarbamate]",LPS/IFNγ-induced NO production,[1],blocked
same,LPS/IFNγ-induced iNOS mRNA and protein levels,[2],blocked
same,LacCer-mediated Ras activation,[3],inhibited
COc1cccc(-c2cc(=O)c3ccccc3o2)c1N [PD98059],LPS/IFNγ-induced NO production,[1],inhibition
same,LPS/IFNγ-induced iNOS mRNA and protein levels,[2],inhibition
same,TNFα-induced ERK1/2 phosphorylation,[4],inhibited
same,TNFα-induced astrocyte proliferation,"[5]; pretreated 0.5 h (AS: 48 h after transfection), TNFα 1 ng/ml 18 h, BrdU incorporation",inhibited
same,TNFα-induced GFAP mRNA and protein expression,"[6]; TNFα 1 ng/ml, mRNA 8 h, protein 18 h",inhibited
"CC(=O)N[C@@H](CS)C(=O)O [NAC, N-Acetyl cysteine]",LPS/IFNγ-induced NO production,[1],blocked
same,LPS/IFNγ-induced iNOS mRNA and protein levels,[2],blocked
same,LacCer-mediated Ras activation,[3],inhibited
Glucosylceramide [GluCer],Reversal of PDMP-mediated inhibition of LPS/IFNγ-induced NO production,[1],did not reverse
same,Proliferation of astrocytes induced by the substance itself,[5]; BrdU incorporation,did not have a similar effect
"CCCCN1CC(O)C(O)C(O)C1CO [Miglustat, 1,5-(butylimino)-1,5-dideoxy-D-glucitol]",Solubility in water,[7],soluble in water
galactosylceramide [GalCer],Reversal of PDMP-mediated inhibition of LPS/IFNγ-induced NO production,[1],did not reverse
same,Proliferation of astrocytes induced by the substance itself,[5]; BrdU incorporation,neither induced proliferation
"CCCCCCCCCCCCC/C=C/[C@@H](O)[C@@H](N)COP(=O)(O)O [S1P, sphingosine-1-phosphate]",Reversal of DMS-mediated inhibition of Ras activation,[3]; exogenous lipid,reverses
same,Reversal of PDMP-mediated inhibition of TNFα-induced proliferation,[5]; PDMP 25 μM plus exogenous lipid,could not be reversed
same,Reversal of DMS-mediated inhibition of TNFα-induced proliferation,[5]; exogenous lipid,reversed
same,Reversal of PD98059-mediated inhibition of TNFα-induced proliferation,[5]; exogenous lipid,could not be reversed
same,Proliferation of astrocytes induced by the substance itself,[5]; BrdU incorporation,induced astrocyte proliferation
same,Reversal of DMS-mediated inhibition of TNFα-induced GFAP expression,[6]; exogenous lipid,reversed
same,Reversal of DMS-mediated inhibition of PI-3K activation,[8],able to reverse
